In ChEMBL document CHEMBL3351953, “Inhibition of the Bacterial Adhesin FimH May Potentially Treat Inflammatory Bowel Diseases (IBD)” (ACS Med Chem Lett, 2014):
pKd: −log10 of the molar value.

Test: Inhibition of Escherichia coli FimH by competitive binding assay

SMILES | pKd
CNC(=O)c1cccc(-c2ccc(O[C@H]3O[C@H](CO)[C@@H](O)[C@H](C(O)[C@H]4O[C@H](CO)[C@@H](O)[C@H](O)[C@@H]4O)[C@@H]3O)cc2)c1 (stereo partly drawn) | 7.54
O=C1NCC(c2ccc(O[C@H]3O[C@H](CO)[C@@H](O)[C@H](C[C@H]4O[C@H](CO)[C@@H](O)[C@H](O)[C@@H]4O)[C@@H]3O)cc2)=C(O)N1 | 6.95
CNC(=O)c1ccc(-c2ccc(C)c(O[C@H]3O[C@H](CO)[C@@H](O)[C@H](C[C@H]4O[C@H](CO)[C@@H](O)[C@H](O)[C@@H]4O)[C@@H]3O)c2)cc1 | 7.72
